Data set [1] deals with Tetranychus cinnabarinus mite eggs. The data set can be described thus: Activity against mite eggs, dipping method on bean seedling leaves. The conditions noted are these: for mortality at 10 µg/mL: read-out: mortality of mite eggs (%), 10 mg/L; for mortality at 100 µg/mL: read-out: mortality of mite eggs (%), 100 mg/L; for mortality at 200 µg/mL: read-out: mortality of mite eggs (%), 200 mg/L; for mortality at 1 µg/mL: read-out: mortality of mite eggs (%), 1 mg/L. The format is in vivo. An outline of the steps: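 Dipping method, three replicates each: leaves carrying 1-day-old mite eggs (24 h laying at 25° C.) immersed 5-6 s in compound solution or additive-only blank. Dead eggs counted 4 days later as percent of eggs treated.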

The test system of data set [2] is Tetranychus cinnabarinus mite larvae. Description: Larvicidal activity test, dipping method on bean seedling leaves. Particulars: checked after 4 days; for mortality at 1 µg/mL: read-out: mortality of mite larvae (%), 1 mg/L; for mortality at 10 µg/mL: read-out: mortality of mite larvae (%), 10 mg/L; for mortality at 100 µg/mL: read-out: mortality of mite larvae (%), 100 mg/L; for mortality at 200 µg/mL: read-out: mortality of mite larvae (%), 200 mg/L; for mortality at 0.1 µg/mL: read-out: mortality of mite larvae (%), 0.1 mg/L. The format is in vivo. An outline of the steps:
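Dipping method: larvae-infested bean seedling leaves were immersed 5–6 s in Tween-containing test solution, with a blank of additives only. Larvae had hatched over 5 days from eggs laid during 24 h at 25° C. Mortality % was counted 4 days later, in triplicate.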

The mark [3] stands for this setting: Tetranychus cinnabarinus, 96 h, checked after 4 days.

“And” between values parts separate entries of the source, which are not always exact repeats. Equal entries are not always repeated.

Regarding `O=S(=O)(Oc1ccc(C2COC(c3c(F)cccc3F)=N2)cc1)c1ccc2c(c1)OCCO2` (stereo not shown) [Compound R3-18], in data set [1] (setting [3]), the mortality at 10 µg/mL is 50%, the mortality at 100 µg/mL worked out at 70% and the mortality at 200 µg/mL was found to be 100%. Besides, in data set [2] (Tetranychus cinnabarinus, 96 h), the mortality at 1 µg/mL is 50%, the mortality at 10 µg/mL is 70%, the mortality at 100 µg/mL is 90% and the mortality at 200 µg/mL was determined as 100%.

`O=S(=O)(Oc1ccc(C2COC(c3c(F)cccc3F)=N2)cc1)c1cccc2ccccc12` (stereo not shown) [Compound R3-20]: in data set [1] (setting [3]), the mortality at 1 µg/mL was found to be 30%, the mortality at 10 µg/mL came out at 70%, the mortality at 100 µg/mL was 80% and the mortality at 200 µg/mL is 100%. In data set [2] (Tetranychus cinnabarinus, 96 h), the mortality at 1 µg/mL is 55%, the mortality at 10 µg/mL was determined as 80%, the mortality at 100 µg/mL was 90% and the mortality at 200 µg/mL came out at 100%.

`O=S(=O)(Oc1ccc(C2COC(c3c(F)cccc3F)=N2)cc1)c1ccc2ccccc2c1` (stereo not shown) [Compound R3-21]: in data set [1] (setting [3]), the mortality at 1 µg/mL was 65%, the mortality at 10 µg/mL was found to be 90%, the mortality at 100 µg/mL was 95% and the mortality at 200 µg/mL worked out at 100%. Further, in data set [2] (Tetranychus cinnabarinus, 96 h), the mortality at 0.1 µg/mL is 65%, the mortality at 1 µg/mL is 95%, the mortality at 10 µg/mL stood at 100% and the mortality at 100 µg/mL is 100%. Besides, the mortality at 200 µg/mL in data set [2] (Tetranychus cinnabarinus, 96 h) stood at 100%.

With `N#Cc1ccc(S(=O)(=O)Oc2ccc(C3COC(c4c(F)cccc4F)=N3)cc2)cc1` (stereo not shown) [Compound R3-22], in data set [1] (setting [3]), the mortality at 1 µg/mL came out at 45%, the mortality at 10 µg/mL is 70%, the mortality at 100 µg/mL amounted to 90% and the mortality at 200 µg/mL was found to be 100%. Also, in data set [2] (Tetranychus cinnabarinus, 96 h), the mortality at 1 µg/mL is 40%, the mortality at 10 µg/mL is 70%, the mortality at 100 µg/mL is 95% and the mortality at 200 µg/mL worked out at 100%.

With `CCOc1cc(C(C)(C)C)ccc1C1COC(c2c(F)cccc2F)=N1` (stereo not shown) [Etoxazole, reference compound], the “mortality of mite eggs (%)” value in data set [1] (0.1 mg/L, checked after 4 days) was 60%; in data set [1] (0.5 mg/L, checked after 4 days), 60%; in data set [1] (10 mg/L, checked after 4 days), 100% and 95%. In data set [1] (Tetranychus cinnabarinus, 96 h, read-out: LC50 (against mite eggs), mite eggs, from regression y = ax + b), the LC50 is 0.128 µg/mL. Moreover, the mortality at 0.01 µg/mL in data set [1] (Tetranychus cinnabarinus, 96 h, read-out: mortality of mite eggs (%), 0.01 mg/L, checked after 4 days) is 30%; in data set [2] (Tetranychus cinnabarinus, 96 h, read-out: mortality of mite larvae (%), 0.01 mg/L) it was 30%. Moreover, the mortality at 0.05 µg/mL in data set [1] (Tetranychus cinnabarinus, 96 h, read-out: mortality of mite eggs (%), 0.05 mg/L, checked after 4 days) was 30%; in data set [2] (Tetranychus cinnabarinus, 96 h, read-out: mortality of mite larvae (%), 0.05 mg/L), 30%. The mortality at 0.5 µg/mL in data set [1] (Tetranychus cinnabarinus, 96 h, read-out: mortality of mite eggs (%), 0.5 mg/L, checked after 4 days) was found to be 80%; in data set [2] (Tetranychus cinnabarinus, 96 h, read-out: mortality of mite larvae (%), 0.5 mg/L), 80%. Further, the mortality at 1 µg/mL came to 70% in data set [1] (setting [3]) and 80% in data set [2] (Tetranychus cinnabarinus, 96 h). For the same compound, the mortality at 10 µg/mL worked out at 90% in data set [1] (setting [3]) and 90% in data set [2] (Tetranychus cinnabarinus, 96 h). The mortality at 100 µg/mL in data set [1] (setting [3]) came to 100%; in data set [2] (Tetranychus cinnabarinus, 96 h), 100%. For the same compound, the mortality at 200 µg/mL was determined as 100% in data set [1] (setting [3]) and 100% in data set [2] (Tetranychus cinnabarinus, 96 h). Further, the “mortality of mite larvae (%)” value in data set [2] (10 mg/L) came out at 100%. In addition, the mortality at 0.1 µg/mL in data set [2] (Tetranychus cinnabarinus, 96 h) turned out to be 65%.

The record behind these values is US12588678B2, “Oxazoline compound, synthesis method therefor and application thereof” (NANKAI UNIVERSITY, priority 2019, dated 2026).
